PMC3638593, “1,4-dihydroxy-2-naphthoic Acid Induces Apoptosis in Human Keratinocyte: Potential Application for Psoriasis Treatment” (Evidence-based Complementary and Alternative Medicine : eCAM, 2013)
Values joined by “and” are separate entries in the source; they are usually repeats but may differ in a detail not shown here. Equal entries are not always repeated.

Columns and labels:
Type in all cases: cell-based, human
[1] = Proliferation/cytotoxicity assay (sulphorhodamine B) on Hs-68 fibroblast; details: human, Hs-68 foreskin fibroblast cells; Hs-68 fibroblast, incubation 72 h; read-out: IC50 on growth (cytotoxic effect)
Hs-68 cells = test: as above; details: Hs-68, compared with dithranol
[2] = Proliferation/cytotoxicity assay (sulphorhodamine B) on PIG1 melanocyte; details: human, PIG1 immortalized epidermal melanocyte cells; PIG1 melanocyte, incubation 72 h; read-out: IC50 on growth (cytotoxic effect)
PIG1 cells = test: as above; details: PIG1, compared with dithranol

Row | Structure (SMILES) | IC50 at 72 h [1] | less cytotoxicity on fibroblasts than dithranol (Hs-68 cells) | IC50 at 72 h [2] | less cytotoxicity on melanocytes than dithranol (PIG1 cells)
1 | O=C(O)c1cc(O)c2ccccc2c1O [DHNA, 1,4-dihydroxy-2-naphthoic acid] | 226 µM and 46.2 µg/mL | ~ 8 times | 24 µM and 4.9 µg/mL | ~ 10 times
2 | O=C1c2c(O)cccc2Cc2cccc(O)c21 [Dithranol, dithranol, reference compound] | 27.4 µM and 6.2 µg/mL |  | 2.34 µM and 0.53 µg/mL | 
